Results on two compounds are retold here after publication PMC1851987, “Identification of the Endogenous Key Substrates of the Human Organic Cation Transporter OCT2 and Their Implication in Function of Dopaminergic Neurons” (PLoS ONE, 2007).

One series deals with T1, OCT2 variant M165I (Homo sapiens, UniProt O15244, M165I/S270A).
T1 sequence (O15244 1-555 M165I/S270A): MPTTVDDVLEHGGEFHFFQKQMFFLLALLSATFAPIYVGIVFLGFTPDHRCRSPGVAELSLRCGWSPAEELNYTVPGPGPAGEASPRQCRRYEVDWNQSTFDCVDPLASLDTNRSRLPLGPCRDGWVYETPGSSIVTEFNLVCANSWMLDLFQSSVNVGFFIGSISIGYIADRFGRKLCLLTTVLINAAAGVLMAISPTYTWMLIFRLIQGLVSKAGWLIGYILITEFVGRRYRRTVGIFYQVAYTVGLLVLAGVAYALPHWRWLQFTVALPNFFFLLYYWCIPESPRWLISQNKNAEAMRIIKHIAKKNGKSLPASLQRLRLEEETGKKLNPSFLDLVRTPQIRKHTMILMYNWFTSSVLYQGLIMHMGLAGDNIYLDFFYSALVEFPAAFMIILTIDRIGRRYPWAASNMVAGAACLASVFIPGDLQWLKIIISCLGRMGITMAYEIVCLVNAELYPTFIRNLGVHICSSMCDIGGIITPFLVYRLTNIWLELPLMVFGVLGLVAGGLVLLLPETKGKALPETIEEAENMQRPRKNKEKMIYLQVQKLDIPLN
The series is described as follows: Specific uptake into HEK-293 cells transfected with OCT2 variant M165I. How it is done:
(§1) The cDNAs encoding the organic cation transporters OCT1 (GenBank accession no. NM_003057), OCT2 (NM_003058), and EMT (NM_021977) were amplified by RT-PCR from human liver, kidney, and placenta total RNA respectively, and subcloned into the eukaryotic expression vector pcDNA3. The cDNA encoding the norepinephrine transporter (SLC6A2) was kindly provided by C. Pifl (University of Vienna).
(§2) For uptake experiments, cells were grown on polystyrene dishes of 60 mm diameter to at least 80% confluence. […] Cells were lysed with 1 ml of 4 mmol/l perchloric acid and lysates subjected to LC-MS-MS quantification. Cellular protein content was determined after solubilization of perchloric acid precipitates with 1 ml of […] NaOH using the bicinchoninic assay (BCA Protein Assay Kit, Pierce).
(§3) Chromatographic separations were performed on Hypercarb (5 µm, 50×2.1 mm; Thermo Electron), Aquasil C18 (3 µm, 100×4.6 mm; Thermo Electron), or Hilic columns (5 µm, 100×3.0 mm; Waters Atlantis) by isocratic or gradient elution using 0.1% aqueous formic acid (A) and acetonitrile or methanol (B) as solvent system. For quantification, SRM transitions of a precursor ion [M+H]^+ into a specific fragment ion (peak area ratios relative to IS) were recorded in positive ESI mode at 1.0–1.5 mTorr collision pressure and 10–40 eV collision energy. […]

A further series concerns the target T2, OCT2 variant A270S (Homo sapiens, UniProt O15244).
T2 sequence (O15244 1-555): T1 sequence (O15244 1-555 M165I/S270A) with I165M, A270S
The series is described as follows: Specific uptake into HEK-293 cells transfected with OCT2 variant A270S. The method, then: as §1, §2, §3

For a further series, the target named is T3, OCT2 variant K432Q (Homo sapiens, UniProt O15244, K432Q/S270A).
T3 sequence (O15244 1-555 S270A/K432Q): T1 sequence (O15244 1-555 M165I/S270A) with I165M, K432Q
The series is described as follows: Specific uptake into HEK-293 cells transfected with OCT2 variant K432Q. The method, then:
as §1, §2, §3

[1] abbreviates: incubation with 10 µmol/l, mean (s.e.m.).

Structures are written as SMILES. Residue numbers refer to the chain shown, from its start.

On to `O=C1NC(Cc2c[nH]cn2)C(=O)N2CCCC12` (stereo not drawn) [cyclo(his-pro), histidyl-proline diketopiperazine], for which the Clin at OCT2 variant M165I (setting [1]) is 24.8 (3.7) µl/mg/min; at OCT2 variant A270S (setting [1]) it was 25.5 (3.3) µl/mg/min; on OCT2 variant K432Q (setting [1]) it was 26.0 (4.3) µl/mg/min.
For orientation: Km means the substrate concentration at which the rate is half of its maximum. Take `CC1NCCc2cc(O)c(O)cc21` (stereo not drawn) [salsolinol]: the Km at 1 min at OCT2 variant M165I (human, pH 7.4) turned out to be 127 µM; on OCT2 variant A270S (human, pH 7.4), 132 µM; at OCT2 variant K432Q (human, pH 7.4), 129 µM.
